Results: patent US20230017045A1, “PYRIDINE AND PYRIMIDINE CARBOXYLATE HERBICIDES AND METHODS OF USE THEREOF” (Dow AgroSciences LLC, priority 2017, published 2023)
Like-named read-outs stand apart in the source and are kept apart here.

Tested on: test plant species
Assay: Post-emergent herbicidal activity test (greenhouse, foliar spray, visual growth reduction)
Assay type: in vivo
Conditions: post-emergence, 336 h, 140 g ai/ha
Procedure: Post-emergent Test: Seeds or nutlets of the desired test plant species were planted in Sun Gro Metro-Mix® 360 planting mixture, which typically has a pH of 6.0 to 6.8 and an organic matter content of about 30 percent, in plastic pots with a surface area of 64 square centimeters. In some aspects, to ensure good germination and healthy plants, a fungicide treatment and/or other chemical or physical treatment was applied. The plants were grown for 7-21 d in a greenhouse with an approximate 15 h photoperiod which was maintained at 23-29° C. during the day and 22-28° C. during the night. Nutrients and water were added on a regular basis and supplemental lighting was provided with overhead metal halide 1000-Watt lamps as necessary. Plants were used for testing when they reached the first or second true leaf stage. A weighed amount, determined by the highest rate to be tested, of each test compound was placed in a 25 mL glass vial and was dissolved in 4 mL of a 97:3 v/v mixture of acetone and DMSO to obtain concentrated stock solutions. […] The concentrated stock solutions obtained were diluted with 20 mL of an aqueous mixture containing acetone, water, isopropyl alcohol, DMSO, […] crop oil concentrate, and X-77 surfactant in a 48.5:39:10:1.5:1.0:0.02 v/v ratio to obtain spray solutions containing the application rate. Compound requirements are based upon a 12 mL application volume at a rate of 187 liters per hectare (L/ha). Formulated compounds were applied to the plant material with an overhead Mandel track sprayer equipped with […] nozzles calibrated to deliver 187 L/ha over an application area of 0.64 square meters at a spray height of 18 inches (43 cm) above the average plant canopy height. Control plants were sprayed in the same manner with the solvent blank. The treated plants and control plants were placed in a greenhouse as described above and watered by subirrigation to prevent wash-off of the test compounds. After 14 d, the condition of the test plants as compared with that of the nontreated and control plants was determined visually and scored on a scale of 0 to 100 percent where 0 corresponds to no injury and 100 corresponds to complete control. In the reporting of the results, Table A: Percent Growth Reduction Conversion Table was used.

[1] = ALOMY: blackgrass (Alopecurus myosuroides), 14 days after application, read-out: Visual Growth Reduction (%) 14 Days After Application, ALOMY
[2] = AMARE: redroot pigweed (Amaranthus retroflexus), 14 days after application, read-out: Visual Growth Reduction (%) 14 Days After Application, AMARE
[3] = AVEFA: wild oat (Avena fatua), 14 days after application, read-out: Visual Growth Reduction (%) 14 Days After Application, AVEFA
[4] = CHEAL: lambsquarters (Chenopodium album), 14 days after application, read-out: Visual Growth Reduction (%) 14 Days After Application, CHEAL
[5] = CIRAR: canada thistle (Cirsium arvense), 14 days after application, read-out: Visual Growth Reduction (%) 14 Days After Application, CIRAR
[6] = CYPES: yellow nutsedge (Cyperus esculentus), 14 days after application, read-out: Visual Growth Reduction (%) 14 Days After Application, CYPES
[7] = DIGSA: crabgrass (Digitaria sanguinalis), 14 days after application, read-out: Visual Growth Reduction (%) 14 Days After Application, DIGSA
[8] = ECHCG: barnyardgrass (Echinochloa crus-galli), 14 days after application, read-out: Visual Growth Reduction (%) 14 Days After Application, ECHCG
[9] = IPOHE: ivy-leaf morning glory (Ipomoea hederacea), 14 days after application, read-out: Visual Growth Reduction (%) 14 Days After Application, IPOHE
[10] = KCHSC: kochia (Bassia scoparia), 14 days after application, read-out: Visual Growth Reduction (%) 14 Days After Application, KCHSC
[11] = ORYSA: rice (Oryza sativa), 14 days after application, read-out: Visual Growth Reduction (%) 14 Days After Application, ORYSA
[12] = SETFA: giant foxtail (Setaria faberi), 14 days after application, read-out: Visual Growth Reduction (%) 14 Days After Application, SETFA
[13] = SORVU: grain sorghum (Sorghum vulgare), 14 days after application, read-out: Visual Growth Reduction (%) 14 Days After Application, SORVU
[14] = STEME: common chickweed (Stellaria media), 14 days after application, read-out: Visual Growth Reduction (%) 14 Days After Application, STEME
[15] = TRZAS: wheat, spring (Triticum aestivum), 14 days after application, read-out: Visual Growth Reduction (%) 14 Days After Application, TRZAS
[16] = blackgrass (Alopecurus myosuroides), 14 Days After Application, read-out: Visual Growth Reduction (%) ALOMY
[17] = canada thistle (Cirsium arvense), 14 Days After Application, read-out: Visual Growth Reduction (%) CIRAR
[18] = crabgrass (Digitaria sanguinalis), 14 Days After Application, read-out: Visual Growth Reduction (%) DIGSA
[19] = lambsquarters (Chenopodium album), 14 Days After Application, read-out: Visual Growth Reduction (%) CHEAL
[20] = redroot pigweed (Amaranthus retroflexus), 14 Days After Application, read-out: Visual Growth Reduction (%) AMARE
[21] = wild oat (Avena fatua), 14 Days After Application, read-out: Visual Growth Reduction (%) AVEFA
[22] = yellow nutsedge (Cyperus esculentus), 14 Days After Application, read-out: Visual Growth Reduction (%) CYPES

SMILES	pest or weed control at 140 g/ha [1]	pest or weed control at 140 g/ha [2]	pest or weed control at 140 g/ha [3]	pest or weed control at 140 g/ha [4]	pest or weed control at 140 g/ha [5]	pest or weed control at 140 g/ha [6]	pest or weed control at 140 g/ha [7]	pest or weed control at 140 g/ha [8]	pest or weed control at 140 g/ha [9]	pest or weed control at 140 g/ha [10]	pest or weed control at 140 g/ha [11]	pest or weed control at 140 g/ha [12]	pest or weed control at 140 g/ha [13]	pest or weed control at 140 g/ha [14]	pest or weed control at 140 g/ha [15]	also measured
COC(=O)c1nc(-c2ccc(C(F)(F)F)cc2Cl)c(I)cc1Cl [F6, Methyl 3-chloro-6-(2-chloro-4-(trifluoromethyl)phenyl)-5-iodopicolinate]	0 to 29%	0 to 29%	0 to 29%	0 to 29%	60 to 74%	0 to 29%	0 to 29%	–	–	–	–	–	–	–	–	pest or weed control at 140 g/ha (barnyardgrass (Echinochloa crus-galli), 14 Days After Application, read-out: Visual Growth Reduction (%) ECHCG): 0 to 29%; pest or weed control at 140 g/ha (common chickweed (Stellaria media), 14 Days After Application, read-out: Visual Growth Reduction (%) STEME): 0 to 29%; pest or weed control at 140 g/ha (giant foxtail (Setaria faberi), 14 Days After Application, read-out: Visual Growth Reduction (%) SETFA): 0 to 29%; pest or weed control at 140 g/ha (ivy-leaf morning glory (Ipomoea hederacea), 14 Days After Application, read-out: Visual Growth Reduction (%) IPOHE): 45 to 59%; pest or weed control at 140 g/ha (johnsongrass (Sorghum vulgare), 14 Days After Application, read-out: Visual Growth Reduction (%) SORVU): 45 to 59%; pest or weed control at 140 g/ha (kochia (Bassia scoparia), 14 Days After Application, read-out: Visual Growth Reduction (%) KCHSC): 45 to 59%; pest or weed control at 140 g/ha (rice (Oryza sativa), 14 Days After Application, read-out: Visual Growth Reduction (%) ORYSA): 0 to 29%; pest or weed control at 140 g/ha (wheat, spring (Triticum aestivum), 14 Days After Application, read-out: Visual Growth Reduction (%) TRZAS): 0 to 29%
COC(=O)c1nc(-c2cc(F)c(C(F)(F)F)cc2Cl)c(F)cc1Cl [F241, Methyl 3-chloro-6-(2-chloro-5-fluoro-4-(trifluoromethyl)phenyl)-5-fluoropicolinate]	–	–	–	–	–	–	–	60 to 74%	95 to 100%	95 to 100%	0 to 29%	95 to 100%	95 to 100%	0 to 29%	75 to 84%	pest or weed control at 140 g/ha [16]: 60 to 74%; pest or weed control at 140 g/ha [17]: 95 to 100%; pest or weed control at 140 g/ha [18]: 95 to 100%; pest or weed control at 140 g/ha [19]: 95 to 100%; pest or weed control at 140 g/ha [20]: 95 to 100%; pest or weed control at 140 g/ha [21]: 85 to 94%; pest or weed control at 140 g/ha [22]: 60 to 74%
COC(=O)c1nc(-c2ccc(C(F)(F)F)c(C)c2Cl)ccc1Cl [F136, methyl 3-chloro-6-(2-chloro-3-methyl-4-(trifluoromethyl)phenyl)picolinate]	0 to 29%	95 to 100%	0 to 29%	75 to 84%	0 to 29%	0 to 29%	60 to 74%	0 to 29%	95 to 100%	45 to 59%	0 to 29%	0 to 29%	75 to 84%	0 to 29%	0 to 29%	–
Cc1c(C(F)(F)F)ccc(-c2ccc(Cl)c(C(=O)O)n2)c1F [F293, 3-Chloro-6-(2-fluoro-3-methyl-4-(trifluoromethyl)phenyl)picolinic acid]	–	–	–	–	–	–	–	0 to 29%	0 to 29%	0 to 29%	0 to 29%	0 to 29%	0 to 29%	0 to 29%	0 to 29%	pest or weed control at 140 g/ha [16]: 0 to 29%; pest or weed control at 140 g/ha [17]: 30 to 44%; pest or weed control at 140 g/ha [18]: 0 to 29%; pest or weed control at 140 g/ha [19]: 45 to 59%; pest or weed control at 140 g/ha [20]: 0 to 29%; pest or weed control at 140 g/ha [21]: 0 to 29%; pest or weed control at 140 g/ha [22]: 0 to 29%
COC(=O)c1nc(-c2ccc(Cl)c(C)c2Cl)ccc1Cl [F48, Methyl 3-chloro-6-(2,4-dichloro-3-methylphenyl) picolinate]	0 to 29%	60 to 74%	0 to 29%	95 to 100%	0 to 29%	0 to 29%	0 to 29%	0 to 29%	–	45 to 59%	0 to 29%	0 to 29%	0 to 29%	0 to 29%	0 to 29%	–
O=C(O)c1nc(-c2ccc(Cl)c3c2OC(F)(F)O3)ccc1Cl [F67, 3-Chloro-6-(7-chloro-2,2-difluorobenzo[d] [1,3]dioxol-4-yl) picolinic acid]	0 to 29%	45 to 59%	0 to 29%	0 to 29%	0 to 29%	0 to 29%	0 to 29%	0 to 29%	0 to 29%	0 to 29%	0 to 29%	0 to 29%	0 to 29%	–	–	–
COC(=O)c1nc(-c2ccc(C(F)(F)F)cc2Br)ccc1Cl [F30, Methyl 6-(2-bromo-4-trifluoromethyl)phenyl-3-chloropicolinate]	60 to 74%	95 to 100%	45 to 59%	95 to 100%	85 to 94%	0 to 29%	85 to 94%	45 to 59%	95 to 100%	75 to 84%	0 to 29%	45 to 59%	85 to 94%	0 to 29%	60 to 74%	–
